Test results taken from patent publication US12503475B2 (Centessa Pharmaceuticals (UK) Limited, priority 2020, dated 2025).
Read-outs that look alike come from different tables or passages of the source.

Legend:
[1] = biological target: T1, human orexin type 2 receptor (hOX2R) (Homo sapiens, UniProt O43614); experiment: Measurement of orexin type 2 receptor agonist activity (FLIPR calcium fluorescence); assay type: cell-based; details: CHO cells expressing hOX2R, FLIPR calcium fluorescence; for EC50: read-out: hOx2 pEC50 (converted); for Emax: CHO, read-out: hOx2 Emax (%)
T1 construct: expressed in transfected cells
T1 sequence (O43614 1-444): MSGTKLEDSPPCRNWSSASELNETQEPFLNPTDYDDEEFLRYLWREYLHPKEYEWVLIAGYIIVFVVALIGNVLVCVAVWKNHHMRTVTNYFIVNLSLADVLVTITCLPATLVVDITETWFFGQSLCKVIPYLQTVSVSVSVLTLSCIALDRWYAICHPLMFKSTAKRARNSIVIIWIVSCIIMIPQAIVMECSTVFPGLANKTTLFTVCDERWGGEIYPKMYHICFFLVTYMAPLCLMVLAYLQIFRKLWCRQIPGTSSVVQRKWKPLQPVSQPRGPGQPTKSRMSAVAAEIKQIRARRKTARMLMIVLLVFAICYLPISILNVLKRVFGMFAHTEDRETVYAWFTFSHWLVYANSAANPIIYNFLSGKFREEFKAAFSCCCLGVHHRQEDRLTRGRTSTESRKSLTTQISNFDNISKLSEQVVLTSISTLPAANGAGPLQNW
Summary of the method: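 Agonism was read as fluorescence in cells stably expressing human OX2R. E. is the response at 10 μM relative to orexin A as full agonist (100%).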

[2] = system: B6.Cg-Tg(HCRT-MJD)1Stak/J (Atax) mouse model of NT1; experiment: Wake promoting efficacy, piezoelectric sleep/wake monitoring, Atax mice; assay type: in vivo; details: dosed 5 h after light onset
Description: (§1) Wake-promoting efficacy of the compounds of the present disclosure may be evaluated in a model (e.g., the B6.Cg-Tg(HCRT-MJD)1Stak/J (Atax) mouse model of NT1 and wild type (WT) colony mates). The model (e.g., mouse model) may be monitored for rapid, non-invasive classification of sleep and wakefulness by unsupervised machine learning on physiologically relevant readouts, such as body movement and breath rate, after dosing of a compound of the present disclosure (e.g., oral dosing).
(§2) Wake-promoting efficacy was evaluated in the B6.Cg-Tg(HCRT-MJD)1Stak/J (Atax) mouse model of NT1 and wild type (WT) colony mates. Mice were monitored in home cages using piezoelectric sensors for rapid, non-invasive classification of sleep and wakefulness by unsupervised machine learning on physiologically relevant readouts, such as body movement and breath rate. Piezoelectric detection is highly correlated with conventional time-intensive electroencephalogram/electromyography measures of sleep/wake states in both WT and NT1 mice. In a counterbalanced design, mice were orally dosed at 5 h after light onset with test articles at 0 (vehicle), 3 and 30 mg/kg.

[3] = system: wild type (WT) colony mates; experiment: Wake promoting efficacy, piezoelectric sleep/wake monitoring, wild type mice; assay type: in vivo, mouse; details: oral dose 30 mg/kg, dosed 5 h after light onset
Description: as §1, §2

[4] = system: mouse models; details: cited from earlier work
[5] = system: individuals with NT1; details: cited from earlier work

With O=C([C@H]1CCO1)N1CC2(CC2)[C@H](NS(=O)(=O)CF)[C@@H]1Cc1cc(F)cc(-c2ccccc2)c1F [Compound 145, N-((6S,7S)-6-((2,5-difluoro-[1,1′-biphenyl]-3-yl)methyl)-5-((R)-oxetane-2-carbonyl)-5-azaspiro[2.4]heptan-7-yl)-1-fluoromethanesulfonamide] the EC50 [1] was 0.0794 to 1 nM, the Emax [1] was 90 to 100% and the “Wake % time 1 h post dose (increase from vehicle)” value ([2]; oral dose 3 mg/kg, 3 mg/kg) was 26.9%. The “Wake % time 1 h post dose (increase from vehicle)” value ([2]; oral dose 3 mg/kg, listed as 59, 3 mg/kg) was 35.5%, the “Wake % time 1 h post dose (increase from vehicle)” value ([2]; oral dose 30 mg/kg, 30 mg/kg) was 28.3% and the “Wake % time 1 h post dose (increase from vehicle)” value ([2]; oral dose 30 mg/kg, listed as 59, 30 mg/kg) was 48.6%. The “Wake % time 1 h post dose (increase from vehicle)” value ([3]; 30 mg/kg) was 25.8% and the “Wake % time 1 h post dose (increase from vehicle)” value ([3]; listed as 59, 30 mg/kg) was 21.1%.
For O=C([C@H]1CCO1)N1CC2(CC2)[C@H](NS(=O)(=O)C(F)F)[C@@H]1Cc1cccc(-c2ccccc2)c1F [Compound 144, 1,1-difluoro-N-((6S,7S)-6-((2-fluoro-[1,1′-biphenyl]-3-yl)methyl)-5-((R)-oxetane-2-carbonyl)-5-azaspiro[2.4]heptan-7-yl)methanesulfonamide], the EC50 [1] was 0.0794 to 1 nM, the Emax [1] was 90 to 100% and the “Wake % time 1 h post dose (increase from vehicle)” value ([2]; oral dose 3 mg/kg) was 26.7%. The “Wake % time 1 h post dose (increase from vehicle)” value ([2]; oral dose 30 mg/kg) was 29.2% and the “Wake % time 1 h post dose (increase from vehicle)” value [3] was 27.2%.
For COC(=O)N1CCC[C@H](NS(C)(=O)=O)[C@@H]1CO[C@H]1CC[C@@H](c2ccccc2)CC1 [TAK-925], the wakefulness ([4]; subcutaneous, WT mice) is listed as “modestly increased wakefulness”, the cataplexy [5] is listed as “trends for decreasing cataplexy” and the wakefulness [5] is listed as “substantial levels of increased wakefulness”.
For COc1ccc(-c2cccc(C(=O)N(C)C)c2)cc1S(=O)(=O)Nc1cccc(NCCNC(=O)c2ccccc2N(C)C)c1 [YNT-185], the “sleep-onset REM periods and cataplexy-like events” value ([4]; NT1 mouse model) is listed as “decrease sleep-onset REM periods and cataplexy-like events” and the wakefulness ([4]; intraperitoneally or ICV, wild type (WT) and orexin ligand-deficient mice) is listed as “modestly increases wakefulness”.
